# Measured values taken from ChEMBL document CHEMBL1144390, “Equipotent activity in both enantiomers of a series of ketopiperazine-based renin inhibitors” (Bioorg Med Chem Lett, 2005).
# Biological target: T1, Renin (Homo sapiens, UniProt P00797)
# T1 sequence (P00797 whole entry): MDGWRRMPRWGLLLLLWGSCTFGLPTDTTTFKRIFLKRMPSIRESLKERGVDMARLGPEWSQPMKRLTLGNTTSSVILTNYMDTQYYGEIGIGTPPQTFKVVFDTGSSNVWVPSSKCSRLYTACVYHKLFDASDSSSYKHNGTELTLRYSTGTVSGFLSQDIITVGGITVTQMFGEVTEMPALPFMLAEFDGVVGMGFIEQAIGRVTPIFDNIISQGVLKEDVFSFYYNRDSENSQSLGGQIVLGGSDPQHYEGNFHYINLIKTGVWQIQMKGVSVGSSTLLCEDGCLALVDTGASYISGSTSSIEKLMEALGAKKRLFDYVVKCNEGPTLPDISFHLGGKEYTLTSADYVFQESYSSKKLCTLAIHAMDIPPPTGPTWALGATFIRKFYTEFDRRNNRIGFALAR
# Experiment: Concentration required to inhibit renin activity by 50%
row,Structure (SMILES),IC50
1,COCCCN1C(=O)CCc2ccc(OC[C@@H]3CNCC(=O)N3c3ccc(OCCCOCc4ccccc4OC)cc3)cc21,17 nM
2,COc1ccccc1COCCCOc1ccc(N2C(=O)CNC[C@@H]2COc2ccc3c(c2)NCCC3)cc1,120 nM
3,COc1ccccc1COCCCOc1ccc(N2C(=O)CNC[C@H]2COc2ccc3c(c2)NCCC3)cc1,23 nM
4,COc1ccccc1COCCCOc1ccc(N2C(=O)CNC[C@H]2COc2ccc3c(c2)N(CCCO)CCC3)cc1,35 nM
5,COCCCN1C(=O)CCc2ccc(OC[C@H]3CNCC(=O)N3c3ccc(OCCCOCc4ccccc4OC)cc3)cc21,7 nM
6,COc1ccccc1COCCCOc1ccc(N2C(=O)CNC[C@H]2COc2ccc3cccnc3c2)cc1,860 nM
7,COc1ccccc1COCCCOc1ccc(N2C(=O)CNC[C@H]2COc2ccc3c(c2)N(CCO)CCC3)cc1,33 nM
